The source of these data is patent US7700353B2, “Compositions and methods for inducing apoptosis in tumor cells” (E-P Therapeutics, Inc., priority 1998, dated 2010).

The test system of one test is 293GP and MCF-7 cells. Description: Effect of RNA/protein synthesis inhibitors on Ea-4 induced morphological change. The note with it: 24 hours. In kind it is cell-based, human. The method, then:
To study the effects of α-aminitin and cycloheximide, known inhibitors of RNA and protein synthesis, respectively, on morphological changes induced by rtEa-4-peptide, about 1-2×10^5 of ZR-75-1 and 293GP cells, re-suspended in their respective basal medium without FBS, were plated in a 6-well culture chamber. Prior to plating the cells, an acid-washed coverslip was placed in each well of the culture chamber. Each culture was treated with recombinant trout Ea-4-peptide at 0.8 µM, and with either α-aminitin at 10 µg/mL (an RNA synthesis inhibitor) or with cycloheximide at 1.0 µg/mL (a protein synthesis inhibitor). The cell cultures were incubated at 37° C. under a humidified atmosphere of 5% CO2. Coverslips were removed from the culture chamber 24 hours after initiation of the treatment and observed under an Olympic inverted microscope equipped with differential interference phase contrast objective lenses (final magnification, 200×). The viability of the inhibitor-treated cells was further determined by a dye extrusion assay.
To determine whether the morphological changes induced by the Ea-4 peptides requires synthesis of new proteins or of RNA, 293GP and MCF-7 cells were cultured under the same conditions as described above. Ea-4 peptide-induced morphological changes in 293GP and MCF-7 cells were abolished by treatment with cycloheximide or α-aminitin (FIG. 4).

For test [1], the system named is SK-N-F1 neuroblastoma cells. Description: Neurite-like process outgrowth / morphological differentiation. It is filed as cell-based, human. To be noted: 5 nM. The method, then: Cells under various treatment conditions were maintained at 37° C. in a 5% CO2 incubator and observed from 30 minutes to 72 hours after incubation (synthetic human Ea- and Eb-peptide were chemically synthesized at the Biotechnology Center, University of Connecticut). For treatment with synthetic hEa, hEb peptide or hlGF-I, 1×10^5 cells were plated in each well of a 12-well culture plate in DMEM/F12 (1:1) supplemented with 0.4-3.2 µM of synthetic hEa-, hEb-peptide and/or 5-10 nM of hlGF-I.
Neuroblastoma SK-N-F1 cells (10^5) were seeded into 12-well culture plates in DMEM/F12 (1:1) supplemented with 0-3.2 µM of synthetic hEb-peptide, or buffer control, and incubated at 37° C. in a 5% CO2 humidified incubator.
Cell images were taken by random sampling at various time points using a MicroMAX CCD camera (Princeton Instruments, Bozeman, Mont.). Approximately 1000 cells were analyzed from each treatment, carried out in triplicate. Cells with neurites longer than one cell body diameter (>20 µm for SK-N-F1 cells) were scored as positive neurite-bearing (Fagerstrom, et al., Cell Growth Differ., 7: 775-85, 1996; Morrione, et al., Cancer Res. 60: 2263-72, 2000). The percentage of neurite-bearing cells and the respective length of neurites were measured with reference to a stage micrometer and analyzed using the public domain NIH Image program (developed at the U.S. National Institutes of Health and available on the Internet at http://rsb.info.nih.gov/nih-image).
To further characterize the dose-response relationship and time course of hEb peptide in inducing neurite-like process outgrowth, SK-N-F1 neuroblastoma cells were treated with various amounts (0 to 3.2 µM) of hEb peptide over a course of 72 hours. Images of cells were taken by random sampling after 1 h, 6 h, 24 h, 48 h and 72 h of incubation (see FIG. 11B). The average length of neurite-like process outgrowth was measured by random sampling of more than 1000 cells at various time points. The neurite-like processes started to be visible as early as 0.5-1 hour after the addition of hEb peptide. The effect of hEb peptide in inducing neurite-like outgrowth was dose-dependent, as evident from a comparison of cells treated with 0.4 µM hEb peptide with those treated with 0.8-3.2 µM hEb peptide over 24-72 hours. The maximum effect of hEb peptide was observed 48 hours after the addition of 3.2 µM hEb peptide, with an average neurite length of 50 to 60 µm (Table 1, below).

The subject of test [2] is MCF-7, HT-29, HepG2, ZR-75-1, SK-N-F1, or HC cells. Description: Morphological change assay in tumor cell lines. In kind it is cell-based, human and fish. To be noted: 2.5 nM, 24 hours, serum-free basal medium. The method, then: (§1) Approximately 1-2×10^5 of MCF-7, ZR-75-1, HT-29, HepG2, 293GP, HC or SK-N-F1 cells re-suspended in their respective basal medium without fetal bovine serum (FBS) were plated in a 6-well culture chamber. Prior to plating cells, an acid-washed coverslip was placed in each well of the culture chamber. Recombinant rainbow trout E-peptides (rtEa-2, rtEa-3 or rtEa-4 peptide at 0.8 µM), human IGF-I (hIGF-1, 2.5 nM) or the same amount of control protein was added to each well and the cell cultures were incubated at 37° C. under a humidified atmosphere of 5% CO2. The control protein was prepared from E. coli cells carrying the expression plasmid but without the E-peptide gene according to the purification method described by Tian et al. (1999). Coverslips were removed from the culture chamber 24 hours after initiation of the treatment and observed under an Olympic inverted microscope equipped with differential interference phase contrast objective lenses or phase contrast objective lens (final magnification, 200×). The morphological change assay was performed at least 10 times with different batches of Ea-4 peptide preparations.
Oncogenic transformed or established cancer cells derived from human and fish (MCF-7, HT-29, HepG2, ZR-75-1, SK-N-F1, or HC cells) were plated in their respective serum-free basal medium supplemented with 0.8 µM of the trout recombinant Ea-4-peptide, with the control protein, or with 2.5 nM of the recombinant hlGF-I and the cultures were examined 24 hours later under an inverted microscope equipped with differential interference phase contrast objectives. […] The rtEa-4 peptide treated cells developed several pseudopodia-like structures to establish contact with neighboring cells similar to that seen in untransformed or non-malignant cells.
Because each of these tumor cell lines obtained from ATCC contains a mixed population of tumorous and nontumorous cells, only between 25-40% of the cells from each cell line responded to induction by rtEa-4-peptide. […]

Test [3] deals with neuroblastoma SK-N-F1 cells. The test is described as follows: Soft agar colony formation (hEb peptide). It is filed as cell-based, human. To be noted: 5 nM. The method, then: The effect of hEb-peptide on in vitro colony formation was tested in the presence or absence of either the mature hlGF-I or fetal bovine serum (FIG. 12). Human neuroblastoma SK-N-F1 cells (10^4) were mixed with 0.4% soft agar supplemented with or without hEb peptide (3.2 µM), IGF-I (5 nM) and/or fetal bovine serum (2.5%), as indicated. The cell mixtures were seeded on top of a solidified basal medium DMEM/F12 (1:1) containing 0.5% agar. Medium supplemented with various peptides or serum were overlaid on top of the solidified cell layer followed by a two-week period incubation at 37° C. in a 5% CO2 humidified incubator. The percentage of cells formed into colonies with a diameter greater than 100 µm Macpherson, Tissue culture methods and applications, pp 276-80: N.Y. Academic Press, 1973) were scored in triplicate and subjected to Student t-test analysis. At least three independent assays under each treatment conditions were carried out.

Test [4] relates to cultured BALB/3T3 fibroblast. The note with it: recombinant peptides; cited from earlier work.
The next test concerns 293GP or ZR-75-1 cells. The test is described as follows: Morphological change by Ea-2, Ea-3, Ea-4 peptides. In kind it is cell-based, human. The note with it: 0.8 μM, 24 hours. The method, then:
as §1
Cells were again cultured as described above. Twenty-four hours after treatment with 0.8 µM of E-peptides or the control protein, the cells were observed under an Olympic inverted microscope equipped with differential interference phase contrast objective lenses (200× magnification). […] To confirm this hypothesis, synthetic peptides specific to Ea-1-, Ea-2-, Ea-3- and Ea-4-peptide (Ea-1sp, Ea-2sp, Ea-3sp and Ea-4sp) specific sequence (see FIG. 1) were prepared and tested for their activities to induce morphological change in ZR-75-1 cells. For FIG. 6, cells were cultured in F12/DME medium without FBS as described above. Twenty-four hours after treatment with 0.8 µM of synthetic peptide containing Ea-1 sp, Ea-2sp, Ea-3sp or Ea-4sp specific sequence or the control protein, the cells were observed under an Olympic inverted microscope equipped with differential interference phase contrast objective lenses (200× magnification).

Test [5] has as its system NIH 3T3 cells and caprine mammary epithelium cells (CMEC). To be noted: recombinant peptides; cited from earlier work.

Turning to `C[C@@H]1C[C@@H]([C@H](O)CC2CC(=O)NC(=O)C2)C(=O)[C@@H](C)C1` [cycloheximide], the “Ea-4 peptide-induced morphological changes” value in the test on 293GP and MCF-7 cells (cycloheximide 1.0 μg/mL with Ea-4 0.8 μM) was “abolished”.
In the case of .alpha.-aminitin, the “Ea-4 peptide-induced morphological changes” value in the test with 293GP and MCF-7 cells (α-aminitin 10 μg/mL with Ea-4 0.8 μM) was “abolished”.
Consider “hlGF-I: recombinant mature human insulin-like growth factor I [reference compound]”, for which the morphological change result in test [1] is “remained rounded and formed aggregated clusters”; in test [2], “rounded morphology”. Further, the colony formation result in test [3] is “strongly stimulated colony formation”.
Regarding “rtEa-2: recombinant Ea-2 peptide of rainbow trout pro-IGF-I, 47 amino acid residues (SEQ ID NO: 4) (RSVRAQRHTDMPRTPKKPLSGHSHPSCKEVHQKNSSRGNTGGRNYRM; Oncorhynchus mykiss)”, the mitogenic activity result in test [4] and in test [5] was “possess mitogenic activity” in each case. Moreover, the “induction of morphological change” value in the test with 293GP or ZR-75-1 cells is given as “able to induce morphological change”.

B1: rtEa-3: recombinant Ea-3 peptide of rainbow trout pro-IGF-I, 62 amino acid residues (SEQ ID NO: 3) (protein)
chain: RSVRAQRHTDMPRTPKVSTAVQSVDRGTERRTAQHPDKTKPKKEVHQKNSSRGNTGGRNYRM
modifications: Oncorhynchus mykiss
For B1, the mitogenic activity entry in test [4] and in test [5] was “possess mitogenic activity” each time. Further, the “induction of morphological change” value in the test on 293GP or ZR-75-1 cells was “failed to induce any visible morphological change”.
